Measurements from paper PMC12064818, “A general assay platform to study protein pharmacology using ligand-dependent structural dynamics” (Nature Communications, 2025).
Where two headings read alike, the source gives them in different places.

Target: T1, NLuc (Oplophorus gracilirostris, UniProt Q9GV45, A31E/A60N/A81I/F95D/I117V/K70R/L54V/L99Q/M102K/N193R/P142E/Q151K/Q38R/Q45L/V71I/Y165I)
T1 construct: His tag (inferred from IMAC purification); made in house; host or cells: E. coli
Format: biochemical
Settings: 32.8 µM ligand; for SDR assay statistics Ave RLU / SDR assay statistics S:B / SDR assay statistics S:N / SDR assay statistics Z’: Standard functional and SDR assays are the same
Method in brief: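 Test compounds added to 1 nM NLuc in PBS with 0.05% IGEPAL, ± ATP. Nano-Glo reagent added and incubated 10 min before luminescence read.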

T1 sequence (Q9GV45 other isoform, or with tags, fused parts or gaps with the stated changes): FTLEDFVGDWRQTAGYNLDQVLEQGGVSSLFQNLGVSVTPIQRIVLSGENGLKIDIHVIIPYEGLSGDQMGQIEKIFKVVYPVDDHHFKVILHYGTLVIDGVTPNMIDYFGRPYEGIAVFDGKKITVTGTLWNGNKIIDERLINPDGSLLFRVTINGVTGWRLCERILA

Compound: O=C(O)c1cccc(-c2noc(-c3ccccc3F)n2)c1 [PTC124, reference compound]
- Standard assay statistics Ave RLU (NLuc (1 nM) + 10 mM ATP): 17397.2 RLU
- Standard assay statistics S:B (NLuc (1 nM) + 10 mM ATP): 1.0
- Standard assay statistics S:N (NLuc (1 nM) + 10 mM ATP): 0.0
- Standard assay statistics Z’ (NLuc (1 nM) + 10 mM ATP): -163.485
- SDR assay statistics Ave RLU (NLuc (1 nM) + 10 mM ATP): 17397.2 RLU
- SDR assay statistics S:B (NLuc (1 nM) + 10 mM ATP): 1.0
- SDR assay statistics S:N (NLuc (1 nM) + 10 mM ATP): 0.0
- SDR assay statistics Z’ (NLuc (1 nM) + 10 mM ATP): -163.485
- Standard assay statistics Ave RLU (NLuc (1 nM) No ATP): 20065.5 RLU
- Standard assay statistics S:B (NLuc (1 nM) No ATP): 1.0
- Standard assay statistics S:N (NLuc (1 nM) No ATP): 0.0
- Standard assay statistics Z’ (NLuc (1 nM) No ATP): -167.215
- SDR assay statistics Ave RLU (NLuc (1 nM) No ATP): 20065.5 RLU
- SDR assay statistics S:B (NLuc (1 nM) No ATP): 1.0
- SDR assay statistics S:N (NLuc (1 nM) No ATP): 0.0
- SDR assay statistics Z’ (NLuc (1 nM) No ATP): -167.215
